18 molecules from patent publication US20100160369A1, “S1P1 Agonists and Methods of Making And Using” (EXELIXIS, INC., priority 2008, published 2010) can be followed below.

Molecules are shown by their SMILES.

One may read the EC50 as the concentration needed to bring the measured effect to its halfway point.

In assay [1] the target is T1, S1P1 (Homo sapiens, UniProt P21453). The experiment in a line: DELFIA GTP-Eu Binding Assay (Assay 3b). Type of assay: biochemical. Further details: purchased Lonza; host or cells: CHO cell membranes. How it is done: The DELFIA GTP-Eu binding assay (PerkinElmer) is a time-resolved fluorometric assay based on GDP-GTP exchange. CHO cell membranes (Lonza) expressing human S1P1 were incubated in 96-well filter plates (Pall, East Hills, N.Y.) in a final volume of 100 μL/well buffer containing 40 μg/mL membrane, 50 mM HEPES, 2 μM GDP, 10 mM MgCl2, 100 mM NaCl, 500 μg/mL Saponin and test compound. Test compounds were tested at maximum concentrations of 10 μM. Compounds were diluted (10 concentration points, 3-fold each) and added to the assay plate at a 1% final DMSO concentration. For each compound, there were duplicate assay plates and each assay plate had duplicate wells per concentration point. The plates were incubated for 30 min at room temperature on a plate shaker at low speed. GTP-Eu was added to each well (10 μL, 10 nM final concentration) and the plate was incubated for an additional 30 min with slow shaking The wells were washed with ice cold GTP washing buffer (3×150 μL) using a vacuum manifold and the assay plates read in an EnVision plate reader (PerkinElmer) at an excitation wavelength of 340 nm and an emission wavelength of 615 nm. To determine agonist activity, percent activity was calculated as [(test compound−background)/(positive control−background)*100], where background is the fluorescence in absence of compound and the positive control is the fluorescence from membranes incubated with 1 μM S1P (Avanti). The percent activities were plotted against compound concentration to determine IC50 or EC50 using XLFit (IDBS).
(§1) Assay 1 is the CNG cAMP Assay as described in Biological Example 1. Assay 2a and 2b are the Tango™ β-arrestin Recruitment Assay in HEK293 and U2OS cells, respectively, as described in Biological Example 2. Assay 3a is the hS1P1R GTPγS Binding Assay as described in Biological Example 3. Assay 3b is the GTP-Eu Binding Assay as described in Biological Example 3. EC50's were measured unless otherwise noted. […] In the table, “nt” means the Compound was not tested and “no” means the compound was tested but had no measurable activity under the assay conditions employed.
Target sequence in this assay (P21453 whole entry): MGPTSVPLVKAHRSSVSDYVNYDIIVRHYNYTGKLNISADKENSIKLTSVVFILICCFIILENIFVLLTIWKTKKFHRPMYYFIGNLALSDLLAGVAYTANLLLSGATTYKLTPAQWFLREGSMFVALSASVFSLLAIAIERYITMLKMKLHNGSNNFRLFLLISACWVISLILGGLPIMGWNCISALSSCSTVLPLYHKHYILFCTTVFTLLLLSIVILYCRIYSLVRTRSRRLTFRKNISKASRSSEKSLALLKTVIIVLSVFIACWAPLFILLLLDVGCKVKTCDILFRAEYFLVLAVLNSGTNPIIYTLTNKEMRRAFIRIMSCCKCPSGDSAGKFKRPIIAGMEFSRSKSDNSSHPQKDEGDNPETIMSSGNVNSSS

Assay [2] deals with T1, S1P1. The experiment in a line: Tango β-arrestin Recruitment Assay in HEK293 cells (Assay 2a). It counts as cell-based. Also noted: linker with TEV protease (N1a) cleavage site (C); host or cells: HEK293, transiently transfected. The conditions noted are these: Tango β-arrestin Recruitment Assay, read-out: Assay 2a EC50. Put shortly: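 Agonist-driven β-arrestin2–TEV recruitment releases tTA to drive luciferase in transiently transfected HEK293 cells. Ten 3-fold dilutions from 10 μM top (1% DMSO), 16–18 h at 37 °C; EC50 fitted to percent activity versus DMSO background and 5 μM S1P efficacy control.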
Target sequence in this assay (P21453 whole entry): as above
Target sequence in this assay (P32121 whole entry partner): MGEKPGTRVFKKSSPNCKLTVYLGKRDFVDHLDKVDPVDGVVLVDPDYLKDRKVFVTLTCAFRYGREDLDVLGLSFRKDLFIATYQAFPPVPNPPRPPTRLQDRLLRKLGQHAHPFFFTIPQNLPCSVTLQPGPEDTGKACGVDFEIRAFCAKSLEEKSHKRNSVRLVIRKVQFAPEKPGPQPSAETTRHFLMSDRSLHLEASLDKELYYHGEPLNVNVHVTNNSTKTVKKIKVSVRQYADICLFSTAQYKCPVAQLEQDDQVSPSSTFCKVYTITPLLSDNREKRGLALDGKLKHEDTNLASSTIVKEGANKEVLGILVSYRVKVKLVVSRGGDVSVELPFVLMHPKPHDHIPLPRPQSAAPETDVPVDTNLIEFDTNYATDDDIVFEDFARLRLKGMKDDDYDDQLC
Background: Recruitment of arrestin is a read-out of receptor activation apart from second messengers.

For assay [3], the target named is T1, S1P1. The experiment in a line: CNG cAMP Assay (Assay 1). It counts as cell-based. Further details: host or cells: HEK293 cells expressing the CNG channel. The conditions noted are these: read-out: Assay 1 EC50. Put shortly:
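cAMP-gated CNG membrane-potential read-out (350/590 nm, T90/T0 ratio) in S1P1/CNG HEK293 cells after 90 min with compound plus NECA 500 nM, S1P 10 nM (EC95), Ro 20-1724 25 μM. Ten 3-fold points from 10 μM, 1.8% DMSO; percent activity vs NECA-only control gives EC50.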
Target sequence in this assay (P21453 whole entry): as the sequence (P21453 whole entry) above

Assay [4] deals with T1, S1P1. Nature of the assay: Tango β-arrestin Recruitment Assay in U2OS cells (Assay 2b). It counts as cell-based. Further details: linker with TEV protease (N1a) cleavage site (C). The conditions noted are these: Tango β-arrestin Recruitment Assay, read-out: Assay 2b EC50. Put shortly: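 Agonist EC50 from percent activity relative to 1 μM S1P efficacy control, using background-subtracted 460/530 nm emission ratios. Compounds (max 1 μM, ten 3-fold dilutions) incubated overnight at 37 °C with serum-starved S1P1 U2OS reporter cells, followed by 2 h β-lactamase reagent at room temperature.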
Target sequence in this assay (P21453 whole entry): as above
Target sequence in this assay (P32121 whole entry partner): as the sequence (P32121 whole entry partner) above

The next assay deals with T2, hS1P1R (hEdg1) (Homo sapiens, UniProt P21453).
T2 construct: purchased Lonza
T2 sequence (P21453 whole entry): as the sequence (P21453 whole entry) above
The experiment in a line: hS1P1R GTPγS Binding Assay (Assay 3a). It counts as biochemical. How it is done:
The hS1P1R GTPγS binding assay was carried out at room temperature in 96 well non-binding surface assay plates. The reaction in each well contained 4 μg hS1P1R (hEdg1) membrane protein (Lonza), 30 μM GDP, 0.1 nM [^35S]GTPγS, 0.25% fatty acid free BSA, and serially diluted hS1P1R agonist compound in 200 μL assay buffer (25 mM Tris-HCl PH 7.9, 100 mM NaCl, 3 mM MgCl2, and 0.2 mM EGTA). After one hour of incubation, 0.9 mg of WGA (Wheat Germ Agglutinin) SPA beads in 50 μL of assay buffer was added to each well. The SPA beads were spun down after an additional one hour incubation. The radioactivity of the bound GTPγS was counted by reading the assay plate using a MicroBeta.
as §1

Where [5] appears, read: relative EC50 was measured (footnote 1), read-out: Assay 3b Relative EC50.

On to `O=C(O)CCc1ccc(-c2noc(-c3cn4cc(C(F)(F)F)cc(Cl)c4n3)n2)c(Cl)c1` [Entry 1], for which the EC50 on S1P1 [1] (read-out: Assay 3b EC50) is 500 to 1000 nM; at S1P1 [2] it was ≤ 100 nM; at S1P1 [3] it was ≤ 100 nM.
For `Cc1cc(CCC(=O)O)ccc1-c1noc(-c2cn3cc(C(F)(F)F)cc(Cl)c3n2)n1` [Entry 2], the EC50 at S1P1 [1] (read-out: Assay 3b EC50) was 100 to 500 nM; on S1P1 [2], ≤ 100 nM; at S1P1 [3], ≤ 100 nM.
Take `O=C(O)CCc1ccc(-c2noc(-c3cn4cc(C(F)(F)F)cc(Cl)c4n3)n2)cc1F` [Entry 6]: the EC50 on S1P1 [1] (setting [5]) was 500 to 1000 nM; at S1P1 [2] it was ≤ 100 nM; on S1P1 [3], ≤ 100 nM.
As for `O=C(O)CCc1cc(F)c(-c2noc(-c3cn4cc(C(F)(F)F)cc(Cl)c4n3)n2)c(F)c1` [Entry 10], the EC50 at S1P1 [1] (setting [5]) is 1000 to 5000 nM; on S1P1 [2] it was 100 to 500 nM; on S1P1 [3], ≤ 100 nM.
`OC[C@H](O)COc1cc(Cl)c(-c2noc(-c3cn4cc(C(F)(F)F)cc(Cl)c4n3)n2)cc1Cl` [Entry 39]: the EC50 at S1P1 [4], at hS1P1R (hEdg1), at S1P1 [2] and on S1P1 [3] was ≤ 100 nM throughout.
Turning to `O=C(O)CCc1cc(Cl)c(-c2noc(-c3cn4cc(C(F)(F)F)cc(Br)c4n3)n2)cc1Cl` [Entry 68], the EC50 on S1P1 [4], at hS1P1R (hEdg1), at S1P1 [2] and at S1P1 [3] was ≤ 100 nM in each case.
In the case of `Cc1cc(CCC(=O)O)c(Cl)cc1-c1noc(-c2cn3cc(C(F)(F)F)cc(Br)c3n2)n1` [Example 196, 3-(4-{5-[8-bromo-6-(trifluoromethyl)imidazo[1,2-a]pyridin-2-yl]-1,2,4-oxadiazol-3-yl}-2-chloro-5-methylphenyl)propanoic acid], the EC50 at S1P1 [4], at hS1P1R (hEdg1), at S1P1 [2] and on S1P1 [3] was ≤ 100 nM each time.
As to `OCC(O)COc1cc(Cl)c(-c2noc(-c3cn4cc(C(F)(F)F)cc(Br)c4n3)n2)cc1Cl` (centres unmarked) [Example 212, 3-[(4-{5-[8-bromo-6-(trifluoromethyl)imidazo[1,2-a]pyridin-2-yl]-1,2,4-oxadiazol-3-yl}-2,5-dichlorophenyl)oxy]propane-1,2-diol], the concentration giving a half-maximal response (EC50) on S1P1 [4], on hS1P1R (hEdg1) and on S1P1 [2] was ≤ 100 nM each time.
`OC[C@H](O)COc1cc(Cl)c(-c2nnc(-c3cn4cc(C(F)(F)F)cc(Cl)c4n3)s2)cc1Cl` [Example 252, (25)-3-[(2,5-dichloro-4-{5-[8-chloro-6-(trifluoromethyl)imidazo[1,2-a]pyridin-2-yl]-1,3,4-thiadiazol-2-yl}phenyl)oxy]propane-1,2-diol]: the EC50 on S1P1 [4] is ≤ 100 nM; at hS1P1R (hEdg1), 500 to 1000 nM; at S1P1 [2], ≤ 100 nM; at S1P1 [3] it was ≤ 100 nM.
As to `OCCOc1cc(Cl)c(-c2noc(-c3cn4cc(C(F)(F)F)cc(Br)c4n3)n2)cc1Cl` [Example 277, 2-[(4-{5-[8-bromo-6-(trifluoromethyl)imidazo[1,2-a]pyridin-2-yl]-1,2,4-oxadiazol-3-yl}-2,5-dichlorophenyl)oxy]ethanol], the EC50 at S1P1 [4], on hS1P1R (hEdg1) and at S1P1 [2] was ≤ 100 nM each time.
Regarding `OCC(CO)COc1cc(Cl)c(-c2noc(-c3cn4cc(C(F)(F)F)cc(Cl)c4n3)n2)cc1Cl` [Example 278, 2-{[(2,5-dichloro-4-{5-[8-chloro-6-(trifluoromethyl)imidazo[1,2-a]pyridin-2-yl]-1,2,4-oxadiazol-3-yl}phenyl)oxy]methyl}propane-1,3-diol], the EC50 on S1P1 [4], on hS1P1R (hEdg1) and on S1P1 [2] was ≤ 100 nM throughout.
Take `O=C(O)CCc1cc(Cl)c(-c2nnc(-c3cn4cc(C(F)(F)F)cc(Br)c4n3)s2)cc1Cl` [Example 286, 3-(4-{5-[8-bromo-6-(trifluoromethyl)imidazo[1,2-a]pyridin-2-yl]-1,3,4-thiadiazol-2-yl}-2,5-dichlorophenyl)propanoic acid]: the EC50 was ≤ 100 nM at S1P1 [4], 1000 to 5000 nM at hS1P1R (hEdg1) and ≤ 100 nM at S1P1 [2].
Turning to `CC(C)(O)COc1cc(Cl)c(-c2noc(-c3cn4cc(C(F)(F)F)cc(Br)c4n3)n2)cc1Cl` [Example 287, 1-[(4-{5-[8-bromo-6-(trifluoromethyl)imidazo[1,2-a]pyridin-2-yl]-1,2,4-oxadiazol-3-yl}-2,5-dichlorophenyl)oxy]-2-methylpropan-2-ol], the results for the EC50 at S1P1 [4], at hS1P1R (hEdg1) and at S1P1 [2] were ≤ 100 nM, 100 to 500 nM and ≤ 100 nM, respectively.
As to `OCCOc1cc(Cl)c(-c2noc(-c3cn4cc(C(F)(F)F)cc(Cl)c4n3)n2)cc1Cl` [Example 288, 2-[(2,5-dichloro-4-{5-[8-chloro-6-(trifluoromethyl)imidazo[1,2-a]pyridin-2-yl]-1,2,4-oxadiazol-3-yl}phenyl)oxy]ethanol], the EC50 at S1P1 [4], at hS1P1R (hEdg1), at S1P1 [2] and on S1P1 [3] was ≤ 100 nM each time.
`OC[C@@H](O)COc1cc(Cl)c(-c2noc(-c3cn4cc(C(F)(F)F)cc(Cl)c4n3)n2)cc1Cl` [Example 289, (2R)-3-[(2,5-dichloro-4-{5-[8-chloro-6-(trifluoromethyl)imidazo[1,2-a]pyridin-2-yl]-1,2,4-oxadiazol-3-yl}phenyl)oxy]propane-1,2-diol]: the EC50 on S1P1 [4], on hS1P1R (hEdg1), at S1P1 [2] and on S1P1 [3] was ≤ 100 nM each time.
Turning to `CC(O)COc1cc(Cl)c(-c2noc(-c3cn4cc(C(F)(F)F)cc(Cl)c4n3)n2)cc1Cl` (centres unmarked) [Example 292, 1-[(2,5-dichloro-4-{5-[8-chloro-6-(trifluoromethyl)imidazo[1,2-a]pyridin-2-yl]-1,2,4-oxadiazol-3-yl}phenyl)oxy]propan-2-ol], the concentration giving a half-maximal response (EC50) on S1P1 [4] is ≤ 100 nM; on hS1P1R (hEdg1) it was 100 to 500 nM; at S1P1 [2], ≤ 100 nM; at S1P1 [3] it was ≤ 100 nM.
Regarding `C[C@@H](O)COc1cc(Cl)c(-c2noc(-c3cn4cc(C(F)(F)F)cc(Cl)c4n3)n2)cc1Cl` [Example 295, (2R)-1-[(2,5-dichloro-4-{5-[8-chloro-6-(trifluoromethyl)imidazo[1,2-a]pyridin-2-yl]-1,2,4-oxadiazol-3-yl}phenyl)oxy]propan-2-ol], the EC50 at S1P1 [4], at hS1P1R (hEdg1) and on S1P1 [2] was ≤ 100 nM each time.
Turning to `O=C(O)CCc1cc(Cl)c(-c2nc(-c3cn4cc(C(F)(F)F)cc(Cl)c4n3)no2)cc1Cl` [Example 315, 3-(2,5-dichloro-4-{3-[8-chloro-6-(trifluoromethyl)imidazo[1,2-a]pyridin-2-yl]-1,2,4-oxadiazol-5-yl}phenyl)propanoic acid], the EC50 on S1P1 [4] is ≤ 100 nM; at hS1P1R (hEdg1), 100 to 500 nM; at S1P1 [2], ≤ 100 nM; on S1P1 [3], ≤ 100 nM.
